Laboratory results from patent US20250064941A1, “SIGLEC LIGANDS, CONJUGATES, AND METHODS OF USE THEREOF” (Osprey Biopharmaceuticals, Inc., priority 2023, published 2025).

Columns and labels:
[1] = target: T1, mouse Siglec-2-Fc-Avi (CD22) (Mus musculus, UniProt P35329); experiment: SPR binding affinity to mouse CD22; conditions: steady-state analysis
T1 construct: made in house
T1 sequence (P35329 22-708 limits assumed): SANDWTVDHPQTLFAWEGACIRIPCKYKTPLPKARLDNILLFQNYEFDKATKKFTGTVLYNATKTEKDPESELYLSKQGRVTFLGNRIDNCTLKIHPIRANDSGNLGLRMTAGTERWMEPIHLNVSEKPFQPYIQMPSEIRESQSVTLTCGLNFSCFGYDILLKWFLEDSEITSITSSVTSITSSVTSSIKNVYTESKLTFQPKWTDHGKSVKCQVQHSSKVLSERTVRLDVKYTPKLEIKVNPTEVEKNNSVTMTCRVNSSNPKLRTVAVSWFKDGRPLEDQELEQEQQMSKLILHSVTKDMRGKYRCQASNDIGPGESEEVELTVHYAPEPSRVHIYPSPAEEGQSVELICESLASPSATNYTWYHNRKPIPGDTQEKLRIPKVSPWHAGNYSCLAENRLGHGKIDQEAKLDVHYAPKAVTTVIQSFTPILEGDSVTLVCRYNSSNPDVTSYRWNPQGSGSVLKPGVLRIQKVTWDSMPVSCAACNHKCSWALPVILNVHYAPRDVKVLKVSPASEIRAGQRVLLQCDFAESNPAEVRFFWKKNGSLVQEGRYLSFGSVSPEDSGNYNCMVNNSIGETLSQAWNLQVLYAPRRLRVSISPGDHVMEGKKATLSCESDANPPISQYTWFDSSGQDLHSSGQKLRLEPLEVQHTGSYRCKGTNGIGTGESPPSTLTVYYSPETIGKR
Outline: (§1)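 Native sialic acid residues are removed from the receptor enzymatically (4 hours at 37° C.) prior to streptavidin capture of the biotinylated protein. Ligand compounds then flow over in HEPES-buffered saline, pH 7.5, containing 0.05% Tween-20 and 1% DMSO, and binding is evaluated at steady state.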

[2] = target: T2, human Siglec-2/CD22 protein (Homo sapiens, UniProt P20273); experiment: SPR binding affinity to human CD22; conditions: steady-state analysis
T2 construct: purchased Acro Biosystems SI2-H82E3
T2 sequence (P20273 20-847): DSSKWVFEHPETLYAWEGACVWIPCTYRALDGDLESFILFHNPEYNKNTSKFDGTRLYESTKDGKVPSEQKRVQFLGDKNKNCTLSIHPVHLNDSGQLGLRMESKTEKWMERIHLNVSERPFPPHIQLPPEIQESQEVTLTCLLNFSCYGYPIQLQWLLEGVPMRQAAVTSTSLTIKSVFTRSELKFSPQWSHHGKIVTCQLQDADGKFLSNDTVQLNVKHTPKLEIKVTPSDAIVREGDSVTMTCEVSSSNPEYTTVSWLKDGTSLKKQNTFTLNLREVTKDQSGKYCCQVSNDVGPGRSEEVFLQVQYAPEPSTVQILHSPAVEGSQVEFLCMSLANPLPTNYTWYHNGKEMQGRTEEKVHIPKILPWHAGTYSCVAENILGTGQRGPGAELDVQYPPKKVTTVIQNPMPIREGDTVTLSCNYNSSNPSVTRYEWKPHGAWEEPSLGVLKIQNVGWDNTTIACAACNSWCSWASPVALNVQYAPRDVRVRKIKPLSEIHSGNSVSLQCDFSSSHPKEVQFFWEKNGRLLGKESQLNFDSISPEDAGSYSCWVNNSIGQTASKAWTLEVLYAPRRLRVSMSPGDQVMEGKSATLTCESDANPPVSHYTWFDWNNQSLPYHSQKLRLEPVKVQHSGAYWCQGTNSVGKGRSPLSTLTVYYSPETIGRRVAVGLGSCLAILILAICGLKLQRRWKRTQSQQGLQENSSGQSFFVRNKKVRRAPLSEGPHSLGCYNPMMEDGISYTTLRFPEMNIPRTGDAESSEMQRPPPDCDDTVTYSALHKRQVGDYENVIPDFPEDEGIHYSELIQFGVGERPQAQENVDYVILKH
Outline: as §1

cynomolgus Siglec-2/CD22 = cynomolgus Siglec-2/CD22 (Macaca fascicularis, UniProt A0A2K5WCZ6); experiment: biochemical; type: binding; conditions: SPR, steady-state analysis; read-out: Affinity cyno CD22
Outline: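 Compound binding measured by steady-state SPR analysis, 120 s dissociation, in HEPES-NaCl-Tween buffer pH 7.5 containing 1% DMSO, DMSO solvent-corrected. Surface: cyno CD22, sialic acids first stripped by SialoExo for 4 h at 37° C., then amine-coupled onto CM5.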

Chain of cynomolgus Siglec-2/CD22 (A0A2K5WCZ6 entry or part of it): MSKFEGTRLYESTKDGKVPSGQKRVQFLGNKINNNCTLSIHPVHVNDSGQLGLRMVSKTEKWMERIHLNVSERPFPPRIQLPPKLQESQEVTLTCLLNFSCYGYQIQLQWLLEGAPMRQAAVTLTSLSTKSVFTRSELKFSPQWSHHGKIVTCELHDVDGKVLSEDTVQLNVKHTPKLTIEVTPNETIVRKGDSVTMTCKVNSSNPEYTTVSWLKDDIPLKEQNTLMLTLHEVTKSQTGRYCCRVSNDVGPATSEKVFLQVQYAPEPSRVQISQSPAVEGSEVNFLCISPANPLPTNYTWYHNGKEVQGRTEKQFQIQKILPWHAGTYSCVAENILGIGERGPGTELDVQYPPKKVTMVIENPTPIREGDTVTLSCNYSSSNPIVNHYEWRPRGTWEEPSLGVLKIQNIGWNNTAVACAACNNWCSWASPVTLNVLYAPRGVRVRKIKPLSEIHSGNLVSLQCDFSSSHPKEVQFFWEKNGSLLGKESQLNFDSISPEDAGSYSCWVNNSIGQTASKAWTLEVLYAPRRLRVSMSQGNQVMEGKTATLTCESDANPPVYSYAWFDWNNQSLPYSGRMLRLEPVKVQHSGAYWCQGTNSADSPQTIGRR

| Structure (SMILES) | Kd [1] [nM] | Kd [2] [nM] | Kd (cynomolgus Siglec-2/CD22) [nM] |
| --- | --- | --- | --- |
| C#CCCOc1ccc(CS[C@]2(C(=O)O)C[C@H](O)[C@@H](NC(=O)CO)[C@H]([C@H](O)[C@H](O)CNC(=O)Cc3cccc(O)c3)O2)cc1 [Compound 149, (2S,4S,5R,6R)-2-((4-(but-3-yn-1-yloxy)benzyl)thio)-6-((1R,2R)-1,2-dihydroxy-3-(2-(3-hydroxyphenyl)acetamido)propyl)-4-hydroxy-5-(2-hydroxyacetamido)tetrahydro-2H-pyran-2-carboxylic acid] | 1000 to 10000 | < 1000 | 1000 to 10000 |
| C#CCN(CC(=O)O)C(=O)CCCO[C@]1(C(=O)O)C[C@H](O)[C@@H](NC(=O)CO)[C@H]([C@H](O)[C@H](O)CNC(=O)Cc2ccc(Cl)cc2)O1 [Compound 101, (2R,4S,5R,6R)-2-(4-((carboxymethyl)(prop-2-yn-1-yl)amino)-4-oxobutoxy)-6-((1R,2R)-3-(2-(4-chlorophenyl)acetamido)-1,2-dihydroxypropyl)-4-hydroxy-5-(2-hydroxyacetamido)tetrahydro-2H-pyran-2-carboxylic acid] | 1000 to 10000 | 1000 to 10000 | 1000 to 10000 |
| C#CCOCCOCCO[C@]1(C(=O)O)C[C@H](O)[C@@H](NC(=O)CO)[C@H]([C@H](O)[C@H](O)CNC(=O)CC)O1 [Compound 15, (2R,4S,5R,6R)-6-((1R,2R)-1,2-dihydroxy-3-propionamidopropyl)-4-hydroxy-5-(2-hydroxyacetamido)-2-(2-(2-(prop-2-yn-1-yloxy)ethoxy)ethoxy)tetrahydro-2H-pyran-2-carboxylic acid] | > 10000 | > 10000 | > 10000 |
| CC(=O)NCCOCCOCCOCCOCCNc1c(NCCCCCCO[C@]2(C(=O)O)C[C@H](O)[C@@H](NC(=O)CO)[C@H]([C@H](O)[C@H](O)CNC(=O)Cc3ccc(C(F)F)cc3)O2)c(=O)c1=O [Cpd. 258, (2R,4S,5R,6R)-6-((1R,2R)-3-(2-(4-(difluoromethyl)phenyl)acetamido)-1,2-dihydroxypropyl)-2-((6-((3,4-dioxo-2-((2-oxo-6,9,12,15-tetraoxa-3-azaheptadecan-17-yl)amino)cyclobut-1-en-1-yl)amino)hexyl)oxy)-4-hydroxy-5-(2-hydroxyacetamido)tetrahydro-2H-pyran-2-carboxylic acid] | < 1000 | < 1000 | < 1000 |
| C#CCCOc1ccc(CO[C@]2(C(=O)O)C[C@H](O)[C@@H](NC(=O)CO)[C@H]([C@H](O)[C@H](O)CNC(=O)Cc3cccc(N4CCOCC4)c3)O2)cc1 [Compound 140, (2R,4S,5R,6R)-2-((4-(but-3-yn-1-yloxy)benzyl)oxy)-6-((1R,2R)-1,2-dihydroxy-3-(2-(3-morpholinophenyl)acetamido)propyl)-4-hydroxy-5-(2-hydroxyacetamido)tetrahydro-2H-pyran-2-carboxylic acid] | 1000 to 10000 | 1000 to 10000 | 1000 to 10000 |
| C#CCOCCOCCO[C@]1(C(=O)O)C[C@H](O)[C@@H](NC(=O)CO)[C@H]([C@H](O)[C@H](O)CNC(=O)CCCCCCCCCCCCCCC)O1 [Compound 13, (2R,4S,5R,6R)-6-((1R,2R)-1,2-dihydroxy-3-palmitamidopropyl)-4-hydroxy-5-(2-hydroxyacetamido)-2-(2-(2-(prop-2-yn-1-yloxy)ethoxy)ethoxy)tetrahydro-2H-pyran-2-carboxylic acid] | > 10000 | > 10000 | > 10000 |
| C#CCOCCCCCCO[C@]1(C(=O)O)C[C@H](O)[C@@H](NC(=O)CN)[C@H]([C@H](O)[C@H](O)CNC(=O)Cc2ccc(Cl)cc2)O1 [Compound 184, (2R,4S,5R,6R)-5-(2-aminoacetamido)-6-((1R,2R)-3-(2-(4-chlorophenyl)acetamido)-1,2-dihydroxypropyl)-4-hydroxy-2-((6-(prop-2-yn-1-yloxy)hexyl)oxy)tetrahydro-2H-pyran-2-carboxylic acid] | 1000 to 10000 | 1000 to 10000 | 1000 to 10000 |
| C#CCOCCCCCCO[C@]1(C(=O)O)C[C@H](O)[C@@H](NC(=O)Cc2ccccc2)[C@H]([C@H](O)[C@H](O)CNC(=O)Cc2ccc(Cl)cc2)O1 [Compound 93, (2R,4S,5R,6R)-6-((1R,2R)-3-(2-(4-chlorophenyl)acetamido)-1,2-dihydroxypropyl)-4-hydroxy-5-(2-phenylacetamido)-2-((6-(prop-2-yn-1-yloxy)hexyl)oxy)tetrahydro-2H-pyran-2-carboxylic acid] | > 10000 | 1000 to 10000 | > 10000 |
| C#CCOCCCCCCO[C@]1(C(=O)O)C[C@H](O)[C@@H](NC(=O)CO)[C@H]([C@H](O)[C@H](O)CNC(=O)Cc2ccc(C(F)F)cc2)O1 [Compound 157, (2R,4S,5R,6R)-6-((1R,2R)-3-(2-(4-(difluoromethyl)phenyl)acetamido)-1,2-dihydroxypropyl)-4-hydroxy-5-(2-hydroxyacetamido)-2-((6-(prop-2-yn-1-yloxy)hexyl)oxy)tetrahydro-2H-pyran-2-carboxylic acid] | < 1000 | < 1000 | < 1000 |

Now from value to compound:

| Kd [1] [nM] | Kd [2] [nM] | Kd (cynomolgus Siglec-2/CD22) [nM] | Structure (SMILES) |
| --- | --- | --- | --- |
| < 1000 | < 1000 | < 1000 | CC(=O)NCCOCCOCCOCCOCCNc1c(NCCCCCCO[C@]2(C(=O)O)C[C@H](O)[C@@H](NC(=O)CO)[C@H]([C@H](O)[C@H](O)CNC(=O)Cc3ccc(-c4nnn[nH]4)cc3)O2)c(=O)c1=O [Cpd. 265, (2R,4S,5R,6R)-6-((1R,2R)-3-(2-(4-(1H-tetrazol-5-yl)phenyl)acetamido)-1,2-dihydroxypropyl)-2-((6-((3,4-dioxo-2-((2-oxo-6,9,12,15-tetraoxa-3-azaheptadecan-17-yl)amino)cyclobut-1-en-1-yl)amino)hexyl)oxy)-4-hydroxy-5-(2-hydroxyacetamido)tetrahydro-2H-pyran-2-carboxylic acid] |
| < 1000 | < 1000 | < 1000 | C#Cc1ccc(CO[C@]2(C(=O)O)C[C@H](O)[C@@H](NC(=O)CO)[C@H]([C@H](O)[C@H](O)CNC(=O)Cc3cccc(O)c3)O2)cc1 [Compound 142, (2R,4S,5R,6R)-6-((1R,2R)-1,2-dihydroxy-3-(2-(3-hydroxyphenyl)acetamido)propyl)-2-((4-ethynylbenzyl)oxy)-4-hydroxy-5-(2-hydroxyacetamido)tetrahydro-2H-pyran-2-carboxylic acid] |
| < 1000 | < 1000 | < 1000 | C#CCCOc1ccc(CO[C@]2(C(=O)O)C[C@H](O)[C@@H](NC(=O)CO)[C@H]([C@H](O)[C@H](O)CNC(=O)Cc3ccc(-c4ccc(O)cc4)cc3)O2)cc1 [Compound 77, (2R,4S,5R,6R)-2-((4-(but-3-yn-1-yloxy)benzyl)oxy)-6-((1R,2R)-1,2-dihydroxy-3-(2-(4′-hydroxy-[1,1′-biphenyl]-4-yl)acetamido)propyl)-4-hydroxy-5-(2-hydroxyacetamido)tetrahydro-2H-pyran-2-carboxylic acid] |
| < 1000 | < 1000 | < 1000 | O=C(Cc1ccc(Cl)cc1)NC[C@@H](O)[C@@H](O)[C@@H]1O[C@@](SCc2ccc(C(=O)O)cc2)(C(=O)O)C[C@H](O)[C@H]1NC(=O)CO [Compound 195, (2S,4S,5R,6R)-2-((4-carboxybenzyl)thio)-6-((1R,2R)-3-(2-(4-chlorophenyl)acetamido)-1,2-dihydroxypropyl)-4-hydroxy-5-(2-hydroxyacetamido)tetrahydro-2H-pyran-2-carboxylic acid] |
